# Data reported in patent US10918645B2 (LIFEARC, priority 2016, dated 2021).
# Tests used:
# Details in all cases: 1 μM inhibitor concentration
# PAK4 = PAK4 (Homo sapiens (Human), UniProt O96013); experiment: PAK4 kinase selectivity assay; format: biochemical
# Description: (§1) PAK4 (5-20 mU diluted in 50 mM Tris pH 7.5, 0.1 mM EGTA, 0.1% b-mercaptoethanol, 1 mg/ml BSA) is assayed against a substrate peptide ([…]) in a final volume of 25.5 μl containing 50 mM Tris pH 7.5, 0.05% b-mercaptoethanol, 300 μM substrate peptide, 10 mM magnesium acetate and 0.005 mM [33P-g-ATP] (50-1000 cpm/pmole) and incubated for 30 min at room temperature. Assays are stopped by addition of 5 μl of 0.5 M (3%) orthophosphoric acid and then harvested onto P81 Unifilter plates with a wash buffer of 50 mM orthophosphoric acid.
# ULK2 = ULK2 (Homo sapiens (Human), UniProt Q8IYT8); experiment: ULK2 kinase selectivity assay; format: biochemical
# TrkA = TrkA (Homo sapiens (Human), UniProt P04629); experiment: TrkA kinase selectivity assay; format: biochemical
# TrkA, sequence (P04629 33-796, species assumed): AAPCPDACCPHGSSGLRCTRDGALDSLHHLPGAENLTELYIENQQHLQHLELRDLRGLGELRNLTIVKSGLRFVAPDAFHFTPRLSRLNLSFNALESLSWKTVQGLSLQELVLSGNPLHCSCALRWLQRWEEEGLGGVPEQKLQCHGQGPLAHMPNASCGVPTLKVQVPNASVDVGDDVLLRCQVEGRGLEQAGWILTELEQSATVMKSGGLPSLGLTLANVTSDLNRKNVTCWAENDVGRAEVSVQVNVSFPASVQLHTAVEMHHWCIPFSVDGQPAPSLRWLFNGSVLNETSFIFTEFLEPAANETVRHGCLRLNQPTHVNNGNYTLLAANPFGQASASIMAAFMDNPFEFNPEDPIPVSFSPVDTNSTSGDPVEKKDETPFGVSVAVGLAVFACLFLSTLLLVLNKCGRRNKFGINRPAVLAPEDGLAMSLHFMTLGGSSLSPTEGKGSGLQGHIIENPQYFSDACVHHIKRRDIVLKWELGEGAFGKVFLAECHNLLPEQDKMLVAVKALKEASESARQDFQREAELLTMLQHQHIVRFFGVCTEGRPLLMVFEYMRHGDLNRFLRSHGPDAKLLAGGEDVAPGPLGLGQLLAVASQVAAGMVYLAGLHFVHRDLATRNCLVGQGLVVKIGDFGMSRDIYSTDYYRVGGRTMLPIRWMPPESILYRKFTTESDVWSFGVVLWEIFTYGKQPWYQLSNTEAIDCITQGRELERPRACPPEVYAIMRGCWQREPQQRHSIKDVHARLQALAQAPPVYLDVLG
# Description: (§2) TrkA (5-20 mU diluted in 50 mM Tris pH 7.5, 0.1 mM EGTA, 10 mM MnCl, 1 mg/ml BSA) is assayed against a substrate peptide (Poly Glut Tyr) in a final volume of 25.5 μl containing 50 mM Tris pH 7.5, 0.1 mM EGTA, 1 mg/ml substrate peptide, 10 mM magnesium acetate and 0.02 mM [33P-γ-ATP] (50-1000 cpm/pmole) and incubated for 30 min at room temperature. Assays are stopped by addition of 5 μl of 0.5 M (3%) orthophosphoric acid and then harvested onto P81 Unifilter plates with a wash buffer of 50 mM orthophosphoric acid.
# MINK1 = MINK1 (Homo sapiens (Human), UniProt Q8N4C8); experiment: MINK1 kinase selectivity assay; format: biochemical
# MINK1, sequence (Q8N4C8 whole entry, species assumed): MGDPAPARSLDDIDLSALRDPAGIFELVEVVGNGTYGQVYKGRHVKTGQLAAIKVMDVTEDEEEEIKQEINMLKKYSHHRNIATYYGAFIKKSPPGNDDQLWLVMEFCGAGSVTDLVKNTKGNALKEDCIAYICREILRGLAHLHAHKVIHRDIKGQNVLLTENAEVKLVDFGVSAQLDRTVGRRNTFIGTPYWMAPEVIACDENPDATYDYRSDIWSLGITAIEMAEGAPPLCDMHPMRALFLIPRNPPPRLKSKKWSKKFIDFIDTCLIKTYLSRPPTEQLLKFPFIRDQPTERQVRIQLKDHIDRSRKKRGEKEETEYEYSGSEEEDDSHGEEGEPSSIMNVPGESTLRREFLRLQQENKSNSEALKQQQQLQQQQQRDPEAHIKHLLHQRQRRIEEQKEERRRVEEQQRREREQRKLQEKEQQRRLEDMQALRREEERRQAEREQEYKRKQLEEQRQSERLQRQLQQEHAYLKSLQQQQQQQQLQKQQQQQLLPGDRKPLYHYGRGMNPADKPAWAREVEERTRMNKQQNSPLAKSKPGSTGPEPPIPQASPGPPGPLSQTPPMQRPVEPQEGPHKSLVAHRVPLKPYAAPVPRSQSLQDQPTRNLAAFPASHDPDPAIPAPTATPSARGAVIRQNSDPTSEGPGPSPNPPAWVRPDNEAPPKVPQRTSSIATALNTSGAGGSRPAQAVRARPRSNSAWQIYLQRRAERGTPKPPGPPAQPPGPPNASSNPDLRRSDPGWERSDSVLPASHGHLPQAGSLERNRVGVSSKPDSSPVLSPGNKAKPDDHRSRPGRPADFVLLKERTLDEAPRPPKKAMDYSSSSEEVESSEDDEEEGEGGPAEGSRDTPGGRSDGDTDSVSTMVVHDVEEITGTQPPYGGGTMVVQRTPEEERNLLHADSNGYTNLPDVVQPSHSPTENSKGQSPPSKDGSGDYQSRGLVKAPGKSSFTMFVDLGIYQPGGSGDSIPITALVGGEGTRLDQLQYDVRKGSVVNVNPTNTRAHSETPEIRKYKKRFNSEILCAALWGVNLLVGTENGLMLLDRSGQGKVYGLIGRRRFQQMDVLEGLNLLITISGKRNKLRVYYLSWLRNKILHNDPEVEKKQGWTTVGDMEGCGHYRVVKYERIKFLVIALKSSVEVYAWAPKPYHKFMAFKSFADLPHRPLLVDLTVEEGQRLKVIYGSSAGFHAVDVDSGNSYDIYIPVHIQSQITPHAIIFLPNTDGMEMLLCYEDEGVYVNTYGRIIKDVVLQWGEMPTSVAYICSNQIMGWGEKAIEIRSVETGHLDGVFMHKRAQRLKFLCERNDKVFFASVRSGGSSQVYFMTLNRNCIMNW
# Description: as §2, with “MINK1 (5-20” for “TrkA (5-20”, “EGTA, 0.1% β-mercaptoethanol,” for “EGTA, 10 mM MnCl,”, “against MBP” for “against a substrate peptide (Poly Glut Tyr)”, “EGTA, 0.33” for “EGTA, 1”, “mg/ml MBP,” for “mg/ml substrate peptide,”, “and 0.05” for “and 0.02”
# RIPK2 = RIPK2 (Homo sapiens (Human), UniProt O43353); experiment: RIPK2 kinase selectivity assay; format: biochemical
# RIPK2, sequence (O43353 whole entry, species assumed): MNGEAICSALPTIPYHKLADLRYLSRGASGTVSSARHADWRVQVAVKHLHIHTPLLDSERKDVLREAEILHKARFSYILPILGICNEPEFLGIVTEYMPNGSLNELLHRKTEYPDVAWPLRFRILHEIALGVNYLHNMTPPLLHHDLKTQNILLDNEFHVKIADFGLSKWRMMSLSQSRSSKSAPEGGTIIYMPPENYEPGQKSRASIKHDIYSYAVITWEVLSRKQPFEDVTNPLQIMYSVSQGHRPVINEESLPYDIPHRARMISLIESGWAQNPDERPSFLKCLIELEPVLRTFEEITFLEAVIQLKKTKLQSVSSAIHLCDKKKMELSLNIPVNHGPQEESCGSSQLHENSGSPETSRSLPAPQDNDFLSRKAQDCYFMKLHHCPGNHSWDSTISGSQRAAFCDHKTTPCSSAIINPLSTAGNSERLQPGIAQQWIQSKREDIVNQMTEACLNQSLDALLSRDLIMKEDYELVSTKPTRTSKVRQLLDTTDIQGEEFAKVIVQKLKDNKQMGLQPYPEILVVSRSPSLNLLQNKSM
# Description: as §2, with “RIPK2 (5-20” for “TrkA (5-20”, “EGTA, 0.1% β-mercaptoethanol,” for “EGTA, 10 mM MnCl,”, “against MBP” for “against a substrate peptide (Poly Glut Tyr)”, “of […]” for “of 25.5”, “EGTA, 0.33” for “EGTA, 1”, “mg/ml MBP,” for “mg/ml substrate peptide,”
# BRSK2 = BRSK2 (Homo sapiens (Human), UniProt Q8IWQ3); experiment: BRSK2 kinase selectivity assay; format: biochemical
# BRSK2, sequence (Q8IWQ3 whole entry, species assumed): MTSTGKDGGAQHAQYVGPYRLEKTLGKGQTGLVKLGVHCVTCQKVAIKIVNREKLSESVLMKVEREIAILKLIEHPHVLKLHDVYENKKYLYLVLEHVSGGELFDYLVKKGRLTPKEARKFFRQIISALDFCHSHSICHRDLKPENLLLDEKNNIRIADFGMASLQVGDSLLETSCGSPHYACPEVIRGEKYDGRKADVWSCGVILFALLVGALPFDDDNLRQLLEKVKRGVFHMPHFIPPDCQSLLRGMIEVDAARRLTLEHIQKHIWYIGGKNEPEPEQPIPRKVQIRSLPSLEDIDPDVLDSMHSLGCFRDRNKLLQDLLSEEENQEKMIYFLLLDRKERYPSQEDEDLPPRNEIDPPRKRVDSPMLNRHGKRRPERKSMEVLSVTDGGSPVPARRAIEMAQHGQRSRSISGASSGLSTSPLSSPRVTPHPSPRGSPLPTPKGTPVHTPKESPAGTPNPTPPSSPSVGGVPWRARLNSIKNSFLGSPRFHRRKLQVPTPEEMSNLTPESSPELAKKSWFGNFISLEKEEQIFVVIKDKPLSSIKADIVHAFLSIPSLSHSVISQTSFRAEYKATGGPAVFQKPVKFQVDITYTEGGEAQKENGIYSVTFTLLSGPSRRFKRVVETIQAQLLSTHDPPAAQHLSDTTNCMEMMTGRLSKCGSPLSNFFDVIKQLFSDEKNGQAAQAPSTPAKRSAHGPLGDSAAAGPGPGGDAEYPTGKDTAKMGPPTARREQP
# Description: as §1, with “BRSK2” for “PAK4”, “0.05” for “0.005”
# AMPK(hum) = experiment: AMPK kinase selectivity assay; format: biochemical, human
# Description: AMPK (5-20 mU diluted in 50 mM Hepes pH 7.5, 1 mM DTT, 0.02% Brij35) is assayed against SAMS substrate peptide ([…]) in a final volume of 25.5 μl containing 50 mM Hepes pH 7.5, 1 mM DTT, 0.02% Brij35, 0.4 mM SAMS peptide, 0.196 mM AMP, 10 mM magnesium acetate and 0.05 mM [33P-g-ATP] (50-1000 cpm/pmole) and incubated for 30 min at room temperature. Assays are stopped by addition of 5 μl of 0.5 M (3%) orthophosphoric acid and then harvested onto P81 Unifilter plates with a wash buffer of 50 mM orthophosphoric acid.
# NUAK1 = NUAK1 (Homo sapiens (Human), UniProt O60285); experiment: NUAK1 kinase selectivity assay; format: biochemical
# NUAK1, sequence (O60285 whole entry, species assumed): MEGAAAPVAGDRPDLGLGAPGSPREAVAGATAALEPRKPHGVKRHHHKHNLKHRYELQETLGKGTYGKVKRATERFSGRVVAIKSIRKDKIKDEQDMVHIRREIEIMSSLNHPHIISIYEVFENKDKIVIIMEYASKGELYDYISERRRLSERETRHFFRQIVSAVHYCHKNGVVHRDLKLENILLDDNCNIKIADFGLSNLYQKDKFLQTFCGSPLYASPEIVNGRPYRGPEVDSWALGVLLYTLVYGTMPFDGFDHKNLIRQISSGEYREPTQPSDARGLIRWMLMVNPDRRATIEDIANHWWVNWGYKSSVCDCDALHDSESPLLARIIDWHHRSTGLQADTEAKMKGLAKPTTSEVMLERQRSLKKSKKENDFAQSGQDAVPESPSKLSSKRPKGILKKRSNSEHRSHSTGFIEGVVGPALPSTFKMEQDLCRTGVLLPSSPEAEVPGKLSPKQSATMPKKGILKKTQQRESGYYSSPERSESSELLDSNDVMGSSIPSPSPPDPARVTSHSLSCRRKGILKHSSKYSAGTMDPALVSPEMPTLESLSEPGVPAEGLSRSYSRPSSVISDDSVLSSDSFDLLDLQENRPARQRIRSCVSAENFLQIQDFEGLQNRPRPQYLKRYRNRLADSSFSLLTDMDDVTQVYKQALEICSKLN
# Description: as §2, with “NUAK1” for “TrkA”, “0.1% 0-mercaptoethanol,” for “10 mM MnCl,”, “a substrate peptide (Poly Glut Tyr)” left out, “0.3 mM […],” for “1 mg/ml substrate peptide,”
# CSK = CSK (Homo sapiens (Human), UniProt P41240); experiment: CSK kinase selectivity assay; format: biochemical
# CSK, sequence (P41240 whole entry, species assumed): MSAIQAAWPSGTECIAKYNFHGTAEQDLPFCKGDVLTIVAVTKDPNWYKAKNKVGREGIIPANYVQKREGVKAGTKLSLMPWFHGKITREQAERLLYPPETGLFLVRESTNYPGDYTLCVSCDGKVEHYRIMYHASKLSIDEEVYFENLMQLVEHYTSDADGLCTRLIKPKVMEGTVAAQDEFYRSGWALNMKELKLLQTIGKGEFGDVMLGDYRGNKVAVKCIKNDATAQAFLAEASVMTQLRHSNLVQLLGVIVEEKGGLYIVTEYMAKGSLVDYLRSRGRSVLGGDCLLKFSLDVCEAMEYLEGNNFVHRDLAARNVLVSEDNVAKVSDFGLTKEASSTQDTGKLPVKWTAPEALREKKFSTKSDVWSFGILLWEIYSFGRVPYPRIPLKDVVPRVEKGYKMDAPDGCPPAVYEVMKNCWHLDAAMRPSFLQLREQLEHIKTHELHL
# Description: CSK (5-20 mU diluted in 20 mM MOPS pH7.5, 1 mM EDTA, 0.01% Brij35, 5% glycerol, 0.1% b-mercaptoethanol, 1 mg/ml BSA) is assayed against Cdc2 peptide ([…]) in a final volume of 25.5 μl containing 8 mM MOPS pH7.0, 0.2 mM EDTA, Cdc2 peptide (0.25 mM), 10 mM magnesium acetate and 0.02 mM [33P-g-ATP](500-1000 cpm/pmole) and incubated for 30 min at room temperature Assays are stopped by addition of 5 μl of 0.5 M (3%) orthophosphoric acid and then harvested onto P81 Unifilter plates with a wash buffer of 50 mM orthophosphoric acid.
# PAK4, sequence (O96013 whole entry, species assumed): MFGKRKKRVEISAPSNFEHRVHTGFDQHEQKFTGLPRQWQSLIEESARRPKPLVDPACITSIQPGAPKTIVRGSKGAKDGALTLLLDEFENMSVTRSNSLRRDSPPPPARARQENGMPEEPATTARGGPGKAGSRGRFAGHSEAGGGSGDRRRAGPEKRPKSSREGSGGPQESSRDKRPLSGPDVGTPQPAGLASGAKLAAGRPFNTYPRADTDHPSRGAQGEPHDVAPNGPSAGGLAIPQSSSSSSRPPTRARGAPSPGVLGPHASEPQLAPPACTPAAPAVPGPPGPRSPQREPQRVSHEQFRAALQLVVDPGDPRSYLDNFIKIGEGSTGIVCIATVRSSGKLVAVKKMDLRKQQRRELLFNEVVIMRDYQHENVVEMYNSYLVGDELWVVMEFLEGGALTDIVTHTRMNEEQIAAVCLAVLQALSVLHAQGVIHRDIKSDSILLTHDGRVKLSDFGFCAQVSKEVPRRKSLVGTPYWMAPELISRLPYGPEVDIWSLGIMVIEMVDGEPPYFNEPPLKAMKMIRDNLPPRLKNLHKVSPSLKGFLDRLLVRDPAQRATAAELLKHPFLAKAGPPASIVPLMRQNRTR
Compound,percentage inhibition of PAK4 (PAK4) [percentage],percentage inhibition of ULK2 (ULK2) [percentage],percentage inhibition of TrkA (TrkA) [percentage],percentage inhibition of MINK1 (MINK1) [percentage],percentage inhibition of RIPK2 (RIPK2) [percentage],percentage inhibition of BRSK2 (BRSK2) [percentage],percentage inhibition of AMPK(hum) (AMPK(hum)) [percentage],percentage inhibition of NUAK1 (NUAK1) [percentage],percentage inhibition of CSK (CSK) [percentage]
"c1cc2[nH]nc3c2c(n1)N(C1CCOCC1)CCC3 [Example 29, 6-(tetrahydro-2H-pyran-4-yl)-6,7,8,9-tetrahydro-2H-1,2,5,6-tetraazabenzo[cd]azulene]",7,7,20,0,0,2,6,7,0
"c1cc2[nH]nc3c2c(n1)N(C1CCC1)CCC3 [Example 22, 6-cyclobutyl-6,7,8,9-tetrahydro-2H-1,2,5,6-tetraazabenzo[cd]azulene]",6,12,0,0,0,0,16,8,1
CC(C)n1ncc2c1CN(C1CCN(C)CC1)c1nccc3[nH]nc-2c13 [Example 68],25,10,9,7,0,31,32,65,0
"c1cc2[nH]nc3c2c(n1)N(C1CCCC1)CCC3 [Example 23, 6-cyclopentyl-6,7,8,9-tetrahydro-2H-1,2,5,6-tetraazabenzo[cd]azulene]",0,1,0,0,0,0,–,17,0
CN1CCC(N2Cc3ccccc3-c3n[nH]c4ccnc2c34)CC1 [Example 55],20,31,5,12,7,50,64,76,0
